Where “and” joins values, the source holds several entries; their conditions need not be identical. Equal values may be shown once. Blank lines part the entries; values can stand above or below the molecule they belong to.
Legend:
Assay type in all cases: physicochemical
[1] = Lyophilization using other cyclodextrins
Protocol: Other CDs were also evaluated at the similar weight ratio of cryoprotectant/nanoparticle.

[2] = Lyophilization using HP-β-CD, freezing with liquid nitrogen and vacuum at room temperature; conditions: PEGylated nanoparticles A, polymer 31.25 mg/mL, vacuum at room temperature;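 note: cyclodextrins or their derivatives tested as cryoprotectant during lyophilization of PEGylated nanoparticles, assessing particle size growth attributed to PEG crystallization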
Protocol: In this example, a new strategy of using cyclodextrins and their derivatives as a cryoprotectant was tested. […] A cryoprotectant is needed to lyophilize liquid formulation that contain PEGylated nanoparticles A (Entries #1 and #2).

[3] = Lyophilization of stealth liposome (Doxil); conditions: lipids 16 mg/mL, cryoprotectant 40 mg/mL (2.5:1 w/w lipid), HP-β-CD lyophilization cycle, post lyophilization
[4] = Cryoprotectant screen, sucrose lyophilization cycle; conditions: PEGylated nanoparticles A; for Dv90 / PDI / Zave: reconstituted
Protocol: A cryoprotectant screen was performed as follows.
These conditions are shown below in Table 21.

[5] = Simple lyophilization of PLGA7K-PVA-PEG2K-30 and PLGA7K-PVA-PEG5K-30 PEGylated nanoparticle formulations; conditions: 2K PEG PLGA nanoparticles 20 mg/mL, cryoprotectant 20 mg/mL (1:1 w/w)
Excerpt: The results are similar to that obtained for PEGylated nanoparticles A except for SB-β-CD. The result from SB-β-CD supported the H-bonding mechanism for cryoprotection of PEGylated PLGA nanoparticles since SB-β-CD has less hydroxyl groups than α-CD, γ-CD and HP-β-CD (about ⅓ of —OH groups of β-CD are substituted by sulfobutyl groups).

[6] = PEGylated nanoparticles A, polymer 31.25 mg/mL, CD 40 mg/mL (1.28:1 w/w), post lyophilization
[7] = cryoprotectant 20 mg/mL (0.64:1 w/w)
[8] = cryoprotectant 40 mg/mL (1.28:1 w/w), listed as HP-beta-CD
[9] = cryoprotectant 60 mg/mL (1.92:1 w/w)
[10] = cryoprotectant 80 mg/mL (2.56:1 w/w)
[11] = polymer 31.25 mg/mL (Doce. 1.5), cryoprotectant 100 mg/mL (3.2:1 w/w)
[12] = polymer 31.25 mg/mL, cryoprotectant 30 mg/mL (0.96:1 w/w)

Dv90 [1, 6]: 119 nm
PDI [1, 6]: 0.075
Zave [1, 6]: 90.66 nm
Dv90 [2, 7]: 121 nm
PDI [2, 7]: 0.095
Reconstituted Solution appearance [2, 7]: some
Zave [2, 7]: 90.93 nm
Reconstituted Solution appearance ([2]; cryoprotectant 40 mg/mL (1.28:1 w/w)): good
Dv90 [2, 8]: 118 nm and 119 nm
PDI [2, 8]: 0.077 and 0.075
Zave [2, 8]: 89.43 nm and 90.66 nm
Dv90 [2, 9]: 119 nm
PDI [2, 9]: 0.089
Reconstituted Solution appearance [2, 9]: good
Zave [2, 9]: 89.84 nm
Dv90 [2, 10]: 119 nm
PDI [2, 10]: 0.095
Reconstituted Solution appearance [2, 10]: good
Zave [2, 10]: 90.60 nm
Dv90 [3]: 119 nm
PDI [3]: 0.071
Zave [3]: 90.32 nm
Molecule: 2-hydroxypropyl-β-cyclodextrin [HP-β-CD]

Lyophilized preparation Appearance [4, 11]: some
Recon. Solution Appearance [4, 11]: cloudy
Dv90 [4, 11]: 178 nm
PDI [4, 11]: 0.352
Zave [4, 11]: 183.2 nm
Molecule: OC[C@H]1O[C@@H](O[C@H]2[C@H](O)[C@@H](O)C(O)O[C@@H]2CO)[C@H](O)[C@@H](O)[C@H]1O (stereo partly drawn) [Lactose, lactose]

outcome after lyophilization (in place of particle size) [5]: Precipitated
Lyophilized preparation Appearance [4, 11]: some
Recon. Solution Appearance [4, 11]: cloudy
Dv90 [4, 11]: 2540 nm
PDI [4, 11]: 0.544
Zave [4, 11]: 472.7 nm
Lyophilized preparation Appearance [4, 12]: good
Recon. Solution Appearance [4, 12]: precipitation
Dv90 [4, 12]: 340 nm
PDI [4, 12]: 0.638
Zave [4, 12]: 499.2 nm
Molecule: OC[C@@H](O)[C@@H](O)[C@H](O)[C@H](O)CO [Mannitol, mannitol]

solubility of the lyoprotectant in the formulation ([1]; CD 40 mg/mL): Beta-CD is not soluble at this
Molecule: OC[C@H]1O[C@@H]2O[C@H]3[C@H](O)[C@@H](O)[C@@H](O[C@H]4[C@H](O)[C@@H](O)[C@@H](O[C@H]5[C@H](O)[C@@H](O)[C@@H](O[C@H]6[C@H](O)[C@@H](O)[C@@H](O[C@H]7[C@H](O)[C@@H](O)[C@@H](O[C@H]8[C@H](O)[C@@H](O)[C@@H](O[C@H]1[C@H](O)[C@H]2O)O[C@@H]8CO)O[C@@H]7CO)O[C@@H]6CO)O[C@@H]5CO)O[C@@H]4CO)O[C@@H]3CO [β-CD, β-cyclodextrin]

Source: patent publication US20110237686A1, “FORMULATIONS AND METHODS OF USE” (Cerulean Pharma Inc, priority 2010, published 2011)
